Common to all, as to experiment: DTP human tumour cell line panel, 48 h
Experiment [1] has as its system UACC-62 melanoma.
For experiment [2], the system named is M14 melanoma.
The subject of experiment [3] is RXF 393 renal.
For experiment [4], the system named is SK-MEL-28 melanoma.
For experiment [5], the system named is TK-10 renal.
In experiment [6] the test system is OVCAR-4 ovarian.
Experiment [7] deals with HOP-92 NSCLC.
The test system of experiment [8] is SW-620 colon.
Experiment [9] deals with HCT-15 colon.

Structures are written as SMILES.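 A five-concentration, 48-hour dose response in 96-well plates underlies each endpoint, interpolated linearly between surrounding concentrations. At the TGI there is no net growth.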

By TGI is commonly meant the concentration giving total growth inhibition. A higher TGI goes with lower sensitivity of the cells. On to `CN(C)CCNC(=O)c1cccc2ncc(-c3ccccc3)nc12`, for which the TGI in experiment [1] came to 27.2 µM; in experiment [2] it was 27.2 µM; in [3], 18 µM; in experiment [4], 36.1 µM; in experiment [5], 34.7 µM; in [6], 26.7 µM. In addition, the TGI came to 59.1 µM in experiment [7], 63.5 µM in experiment [8] and 25.2 µM in experiment [9].

As for `COCOCC[C@@H]1CC=CC(NC(=O)OCc2ccccc2)C1/C=C/C(=O)CCC1OCCO1` (stereo partly specified), the concentration for total growth inhibition (TGI) in experiment [1] was greater than 75.4 µM; in experiment [2], 88.4 µM; in [3], greater than 75.9 µM; in experiment [4], greater than 63.3 µM; in experiment [5] it was greater than 100 µM; in experiment [6], greater than 74.4 µM. The TGI in [7] is greater than 100 µM; in experiment [8], 59.5 µM; in [9], 32.2 µM.

Take `Cc1ccc(NC(=O)CC/C(CC(=O)C(C)(C)C)=N\Nc2ccc([N+](=O)[O-])cc2[N+](=O)[O-])cc1C`: the TGI in experiment [1] is greater than 100 µM; in experiment [2], 20.4 µM; in [3] it was greater than 100 µM; in [4], greater than 100 µM; in experiment [5] it was greater than 100 µM; in [7], greater than 100 µM. For the same compound, the TGI in experiment [8] and in [9] was greater than 100 µM in each case.

As to `COc1cc(/C=C\c2ccc(OC(C)=O)cc2)cc(OC)c1OC`, the total growth inhibition concentration (TGI) was greater than 100 µM in experiment [1]; greater than 100 µM in experiment [2]; 7.67 µM in experiment [4]; greater than 100 µM in experiment [6]; greater than 100 µM in [7]; greater than 100 µM in experiment [8].

For the compound `Cn1nc(-c2ccccc2)c(C(=O)/C=C/c2ccc(F)cc2)c(N2CCOCC2)c1=O`, the TGI in experiment [1] was found to be 43 µM; in [2] it was 48.8 µM; in experiment [3], 27.8 µM; in experiment [4] it was 31.5 µM; in [5] it was 97.5 µM; in [7], 36.4 µM. Also, the TGI is 47.1 µM in experiment [8] and greater than 100 µM in experiment [9].

As for `Cc1c(C2Cc3ccccc3N2)c2ccccc2n1C` (stereo unspecified), the TGI in [1], in [2], in [3], in experiment [5], in experiment [6] and in [8] was greater than 100 µM in each case. In [9], this compound registered a TGI greater than 100 µM.

In the case of `COc1cc(CC(C(=O)O)C(=O)O)c(OC)cc1CC(C(=O)O)C(=O)O`, the TGI in experiment [1], in experiment [2], in experiment [3], in experiment [5], in [6] and in experiment [7] was greater than 100 µM each time. The TGI in experiment [8] and in [9] was greater than 100 µM each time.

In the case of `CCOC(=O)c1c2cccccc2n2c(=O)cc(C)nc12`, the total growth inhibition concentration (TGI) in experiment [1], in experiment [2], in [3], in experiment [4], in experiment [5] and in experiment [6] was greater than 100 µM in each case. Besides, the TGI in experiment [8] and in [9] was greater than 100 µM each time.

Regarding `O=C1[C@H](Cl)[C@H]2c3cc4ccccc4nc3Oc3ccccc3N12`, the TGI in experiment [1] was 42.5 µM; in [2] it was greater than 100 µM; in experiment [4] it was greater than 100 µM; in [5] it was greater than 100 µM; in experiment [6], greater than 100 µM; in [8], greater than 100 µM. In experiment [9], the TGI was greater than 100 µM.

Take `Cc1cc(C)nc(NS(=O)(=O)c2ccc(NC(=O)c3ccc(Cl)c4c(Nc5ccc(S(=O)(=O)N=C(N)N)cc5)c5ccccc5nc34)cc2)n1`: the TGI in [1] is greater than 100 µM; in experiment [2], greater than 100 µM; in experiment [4], greater than 100 µM; in [5] it was greater than 100 µM; in experiment [6] it was greater than 100 µM; in [7], 67.7 µM. The compound further had a TGI in [8] of 76 µM.

On to `COc1ccc(NC(=O)CCc2cc(C(C)(C)C)n[nH]2)cc1`, for which the TGI in experiment [1], in [2], in experiment [3], in [4], in experiment [5] and in experiment [7] was greater than 100 µM in each case. Further, the TGI in [8] and in [9] was greater than 100 µM each time.

In the case of `CC(=N)N(C)O`, the TGI in [1], in experiment [2], in experiment [3], in [4], in [5] and in [6] was greater than 100 µM in each case. Also, the TGI is greater than 100 µM in [7] and 42.9 µM in [9].

Consider `COc1ccc(/C=c2/sc3n(c2=O)NC(c2ccc(Cl)cc2)NN=3)cc1` (stereo unspecified), for which the TGI in experiment [1], in [2], in experiment [3], in experiment [4], in [5] and in experiment [6] was greater than 100 µM each time. Further, the TGI in experiment [7] and in experiment [8] was greater than 100 µM throughout.

The values above are taken from PubChem BioAssay (NCI).
